Reference: patent US8602544B2, “Ink set, ink cartridge, ink jet recording method, and ink jet recording apparatus” (Canon Kabushiki Kaisha, priority 2009, dated 2013)

Test: Determination of poor medium/good medium (solubility of the dye in a water-soluble organic solvent)
Format: physicochemical
Experimental: It is determined by the solubility of the dye whether a certain water-soluble organic solvent is a good medium or a poor medium with respect to a dye to be used together. In other words, the good medium and the poor medium are indexes which indicate the relationship between the water-soluble organic solvent and the dye from the viewpoint of the solubility.
More specifically, it can be determined in the following way whether a certain water-soluble organic solvent is a good medium or a poor medium with respect to a dye being an object to be determined. The water-soluble organic solvent of an object to be determined and a sufficient amount of a dye are placed into a sample bottle having a capacity of approximately 20 cc, and the liquid is stirred overnight. […] Because the supernatant liquid after the centrifugal separation is a saturated solution of the dye, the solubility of the dye can be determined by measuring the absorbance of the liquid, and calculating the ratio of the measured absorbance to the absorbance of an aqueous solution of the dye with a known concentration.
In order to evaluate the reliability of the ink, it was determined what type of relationship there was between a dye and a water-soluble organic solvent which were contained in an ink. A water-soluble organic solvent being an object to be determined (when the water-soluble organic compound is solid, it was a 20% aqueous solution of the solid) and a sufficient amount of the dye were placed into a sample bottle having a capacity of 20 cc, and the liquid was stirred overnight. […] Then, the solubility of the dye with respect to the water-soluble organic solvent being the object to be determined (or 20% aqueous solution) was determined from the ratio of the measured absorbance to the previously measured absorbance of an aqueous solution having a predetermined concentration of the dye. From the obtained solubility, a water-soluble organic solvent having a solubility of 5% or less was determined to be a poor medium, and a water-soluble organic solvent having a solubility of more than 5% was determined to be a good medium.

[1] = 1-(2-hydroxyethyl)-2-pyrrolidinone
[2] = Triethylene glycol monobutyl ether

Row | Structure (SMILES) | Determination results for poor medium/good medium (solubility of the dye) (1,2-hexandiol) | Determination results for poor medium/good medium (solubility of the dye) (1,5-pentanediol) | Determination results for poor medium/good medium (solubility of the dye) [1] | Determination results for poor medium/good medium (solubility of the dye) (2-methyl-1,3-propanediol) | Determination results for poor medium/good medium (solubility of the dye) (Diethylene glycol) | Determination results for poor medium/good medium (solubility of the dye) (Ethylene glycol) | Determination results for poor medium/good medium (solubility of the dye) (Glycerin) | Determination results for poor medium/good medium (solubility of the dye) (Propylene glycol) | Determination results for poor medium/good medium (solubility of the dye) (Triethylene glycol) | Determination results for poor medium/good medium (solubility of the dye) [2]
1 | CCc1cc(C)c(S(=O)(=O)O)c(CC)c1Nc1nc(N(c2nc3ccc(S(=O)(=O)O)cc3s2)c2c(CC)cc(C)c(S(=O)(=O)O)c2CC)cc(C)c1N=Nc1c(C#N)c(C(C)(C)C)nn1-c1nc2ccc(S(=O)(=O)O)cc2s1 [Exemplified compound M2] | good (a water-soluble organic solvent having a solubility of more than 5% was determined to be a good medium) | good (a water-soluble organic solvent having a solubility of more than 5% was determined to be a good medium) | good (a water-soluble organic solvent having a solubility of more than 5% was determined to be a good medium) | good (a water-soluble organic solvent having a solubility of more than 5% was determined to be a good medium) | good (a water-soluble organic solvent having a solubility of more than 5% was determined to be a good medium) | good (a water-soluble organic solvent having a solubility of more than 5% was determined to be a good medium) | good (a water-soluble organic solvent having a solubility of more than 5% was determined to be a good medium) | good (a water-soluble organic solvent having a solubility of more than 5% was determined to be a good medium) | good (a water-soluble organic solvent having a solubility of more than 5% was determined to be a good medium) | good (a water-soluble organic solvent having a solubility of more than 5% was determined to be a good medium)
2 | Cn1c(=O)c(C(=O)c2cccc(S(=O)(=O)O)c2)c2c3c(c(Nc4cc(Nc5nc(NCCNc6nc(Nc7cc(Nc8ccc9c%10c8C(=O)c8ccccc8-c%10c(C(=O)c8cccc(S(=O)(=O)O)c8)c(=O)n9C)c(S(=O)(=O)O)cc7S(=O)(=O)O)nc(Oc7ccc(S(=O)(=O)O)cc7)n6)nc(Oc6ccc(S(=O)(=O)O)cc6)n5)c(S(=O)(=O)O)cc4S(=O)(=O)O)ccc31)C(=O)c1ccccc1-2 [Exemplified compound M1] | poor (a water-soluble organic solvent having a solubility of 5% or less was determined to be a poor medium) | poor (a water-soluble organic solvent having a solubility of 5% or less was determined to be a poor medium) | good (a water-soluble organic solvent having a solubility of more than 5% was determined to be a good medium) | poor (a water-soluble organic solvent having a solubility of 5% or less was determined to be a poor medium) | good (a water-soluble organic solvent having a solubility of more than 5% was determined to be a good medium) | good (a water-soluble organic solvent having a solubility of more than 5% was determined to be a good medium) | good (a water-soluble organic solvent having a solubility of more than 5% was determined to be a good medium) | good (a water-soluble organic solvent having a solubility of more than 5% was determined to be a good medium) | good (a water-soluble organic solvent having a solubility of more than 5% was determined to be a good medium) | good (a water-soluble organic solvent having a solubility of more than 5% was determined to be a good medium)
